In BindingDB's records for doi:10.7270/Q2WQ028B (Vanderbilt Screening Center For Gpcrs, Ion Channels and …, 2010):

Molecular target: T1, G protein-activated inward rectifier potassium channel 1 (Rattus norvegicus, UniProt P63251)
T1 sequence (P63251 whole entry): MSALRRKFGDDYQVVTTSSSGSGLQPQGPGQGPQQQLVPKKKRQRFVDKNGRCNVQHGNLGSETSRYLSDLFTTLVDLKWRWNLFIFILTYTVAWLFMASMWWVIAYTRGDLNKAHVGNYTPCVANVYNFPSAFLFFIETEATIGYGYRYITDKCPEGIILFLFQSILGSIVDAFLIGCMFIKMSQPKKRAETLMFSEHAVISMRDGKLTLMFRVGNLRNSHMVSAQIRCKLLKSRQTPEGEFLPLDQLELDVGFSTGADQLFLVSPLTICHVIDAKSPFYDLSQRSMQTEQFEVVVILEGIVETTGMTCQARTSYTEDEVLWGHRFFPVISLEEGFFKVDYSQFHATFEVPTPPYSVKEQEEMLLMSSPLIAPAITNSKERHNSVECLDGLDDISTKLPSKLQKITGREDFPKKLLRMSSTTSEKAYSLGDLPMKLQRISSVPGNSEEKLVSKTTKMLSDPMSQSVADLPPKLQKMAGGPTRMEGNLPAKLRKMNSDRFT
Experiment: alpha2C-dependent GIRK activation, antagonist reversal – cell-based, thallium flux, with rauwolscine, mechanism study for alpha2C adrenergic receptor project, dose response (AID 435016)
Details: inactive by the depositor's call

EC50 | Compound
2.29 µM | CCSc1nnc(NC(=O)NC(CC)(C(F)(F)F)C(F)(F)F)s1 [1-(5-ethylsulfanyl-1,3,4-thiadiazol-2-yl)-3-[1,1,1-trifluoro-2-(trifluoromethyl)butan-2-yl]urea]
41.4 µM | CCOC(=O)c1ccc(NC(=O)NC(C)C2CCCO2)cc1 (stereo not drawn)
12.6 µM | O=c1c(-c2ccc3c(c2)OCCO3)c(C(F)(F)F)oc2cc(O)cc(O)c12 [3-(2,3-dihydro-1,4-benzodioxin-6-yl)-5,7-bis(oxidanyl)-2-(trifluoromethyl)chromen-4-one]
